Experimental data reported in patent publication US12447170B2, “Use of maribavir in treatment regimens” (priority 2021, dated 2025).
Entries after “also recorded” stand apart in the source; their conditions may differ.

Key:
[1] = test system: CYP1A2 mRNA; assay type: in vitro ADME; conditions: human, hepatocytes, 72 h
Method: (§1) Fresh human hepatocytes were treated with culture medium with maribavir concentrations of 36 μM, 144 μM, and 480 μM. […] Incubation was conducted at 37° C. for 72 hours, with daily replacement of medium with compound. […] Analysis of CYP expression was performed using qPCR with CYP-specific probes.

[2] = test system: CYP2B6 mRNA; assay type: in vitro ADME; conditions: human, hepatocytes, 72 h
Method: as §1

[3] = clinical; conditions: human, in vivo
[4] = Observed clinical interaction of maribavir with rifampicin; assay type: in vivo, human; conditions: maribavir 400 mg BID with/without rifampicin 600 mg QD
Method: A comparison of observed and predicted plasma concentrations of maribavir following multiple oral doses of 400 mg administered in the absence of rifampicin and during concurrent treatment with rifampicin was performed. Subjects took maribavir 400 mg BID on Days 1-3 (5 doses), then rifampicin 600 mg QD on Days 4 through 12, followed by both maribavir 400 mg (BID) and rifampicin 600 mg QD on Days 13 and 14, with final doses of maribavir and rifampicin on the morning of Day 15.

[5] = biological target: T1, CYP1A2 (Homo sapiens, UniProt P05177); assay: Time-dependent CYP inhibition (IC50 shift, 30 minute pre-incubation with HLM +/- NADPH); assay type: in vitro ADME; parameters: from tissue; conditions: up to 100 μM
T1 sequence (P05177 1-516): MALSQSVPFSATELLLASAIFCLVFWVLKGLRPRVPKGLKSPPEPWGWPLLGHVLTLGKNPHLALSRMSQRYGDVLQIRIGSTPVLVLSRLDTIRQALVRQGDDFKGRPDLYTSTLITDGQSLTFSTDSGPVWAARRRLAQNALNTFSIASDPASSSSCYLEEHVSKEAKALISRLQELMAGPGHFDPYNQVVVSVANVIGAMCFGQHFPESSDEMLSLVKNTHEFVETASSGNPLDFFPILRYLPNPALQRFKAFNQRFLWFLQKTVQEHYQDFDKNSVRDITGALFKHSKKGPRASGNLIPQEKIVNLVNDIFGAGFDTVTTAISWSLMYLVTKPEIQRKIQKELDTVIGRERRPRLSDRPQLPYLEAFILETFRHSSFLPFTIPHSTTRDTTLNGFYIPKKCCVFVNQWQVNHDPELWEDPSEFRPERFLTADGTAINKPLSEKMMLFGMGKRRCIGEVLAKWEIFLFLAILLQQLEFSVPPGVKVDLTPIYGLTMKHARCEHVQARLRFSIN
Method: (§2) Time-dependent inhibition (TDI) potentials for various CYP enzymes were evaluated by a 30 minute pre-incubation of maribavir with HLM in the presence and absence of nicotinamide-adenine dinucleotide […] (NADPH) followed by a CYP enzyme activity assay.

[6] = biological target: T2, CYP2C19 (Homo sapiens, UniProt P33261); assay: as above; assay type: in vitro ADME; parameters: from tissue; conditions: up to 100 μM
T2 sequence (P33261 whole entry): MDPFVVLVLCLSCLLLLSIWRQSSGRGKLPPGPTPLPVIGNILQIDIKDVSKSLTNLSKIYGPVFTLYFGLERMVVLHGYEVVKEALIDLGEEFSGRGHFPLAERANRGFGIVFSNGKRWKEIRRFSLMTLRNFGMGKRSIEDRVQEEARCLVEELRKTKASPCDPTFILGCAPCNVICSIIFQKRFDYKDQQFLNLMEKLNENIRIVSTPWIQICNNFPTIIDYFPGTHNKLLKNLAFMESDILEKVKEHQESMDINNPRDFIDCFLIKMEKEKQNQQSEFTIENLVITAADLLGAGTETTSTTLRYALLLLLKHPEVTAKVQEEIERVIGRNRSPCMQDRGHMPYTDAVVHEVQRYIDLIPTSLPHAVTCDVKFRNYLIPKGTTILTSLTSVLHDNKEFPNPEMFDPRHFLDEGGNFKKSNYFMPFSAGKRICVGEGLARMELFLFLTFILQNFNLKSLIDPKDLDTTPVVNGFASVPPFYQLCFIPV
Method: as §2

[7] = biological target: T3, CYP2C8 (Homo sapiens, UniProt P10632); assay: as above; assay type: in vitro ADME; parameters: from tissue; conditions: up to 100 μM
T3 sequence (P10632 1-490): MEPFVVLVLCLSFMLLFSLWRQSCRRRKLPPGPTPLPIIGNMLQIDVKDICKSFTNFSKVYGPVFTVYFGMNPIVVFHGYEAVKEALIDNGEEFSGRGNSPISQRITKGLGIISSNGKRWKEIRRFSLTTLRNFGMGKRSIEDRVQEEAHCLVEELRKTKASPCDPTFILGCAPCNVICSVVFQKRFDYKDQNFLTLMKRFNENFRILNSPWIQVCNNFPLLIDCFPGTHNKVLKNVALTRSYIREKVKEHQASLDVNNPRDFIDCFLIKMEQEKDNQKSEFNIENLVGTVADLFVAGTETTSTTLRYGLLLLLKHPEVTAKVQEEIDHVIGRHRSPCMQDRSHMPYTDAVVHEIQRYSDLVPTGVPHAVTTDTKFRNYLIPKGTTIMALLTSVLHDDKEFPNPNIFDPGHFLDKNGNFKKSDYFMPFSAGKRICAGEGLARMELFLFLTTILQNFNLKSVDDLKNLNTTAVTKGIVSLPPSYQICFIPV
Method: as §2

[8] = biological target: T4, CYP2C9 (Homo sapiens, UniProt P11712); assay: as above; assay type: in vitro ADME; parameters: from tissue; conditions: up to 100 μM
T4 sequence (P11712 whole entry): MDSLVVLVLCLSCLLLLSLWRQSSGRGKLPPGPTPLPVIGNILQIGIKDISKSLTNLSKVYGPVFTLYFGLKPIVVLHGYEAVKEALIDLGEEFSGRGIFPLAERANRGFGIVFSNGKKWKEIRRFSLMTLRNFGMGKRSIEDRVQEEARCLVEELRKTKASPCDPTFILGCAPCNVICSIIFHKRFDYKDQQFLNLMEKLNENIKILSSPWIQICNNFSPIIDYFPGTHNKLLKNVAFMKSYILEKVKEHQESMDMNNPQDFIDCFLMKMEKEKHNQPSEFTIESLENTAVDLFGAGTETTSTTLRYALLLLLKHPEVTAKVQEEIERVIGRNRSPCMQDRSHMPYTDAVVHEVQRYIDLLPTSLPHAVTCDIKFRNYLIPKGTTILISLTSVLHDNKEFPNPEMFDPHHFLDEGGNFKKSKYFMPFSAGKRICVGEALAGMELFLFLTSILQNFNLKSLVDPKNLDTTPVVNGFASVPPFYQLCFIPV
Method: as §2

[9] = biological target: T5, CYP2D6 (Homo sapiens, UniProt P10635); assay: as above; assay type: in vitro ADME; parameters: from tissue; conditions: up to 100 μM
T5 sequence (P10635 whole entry): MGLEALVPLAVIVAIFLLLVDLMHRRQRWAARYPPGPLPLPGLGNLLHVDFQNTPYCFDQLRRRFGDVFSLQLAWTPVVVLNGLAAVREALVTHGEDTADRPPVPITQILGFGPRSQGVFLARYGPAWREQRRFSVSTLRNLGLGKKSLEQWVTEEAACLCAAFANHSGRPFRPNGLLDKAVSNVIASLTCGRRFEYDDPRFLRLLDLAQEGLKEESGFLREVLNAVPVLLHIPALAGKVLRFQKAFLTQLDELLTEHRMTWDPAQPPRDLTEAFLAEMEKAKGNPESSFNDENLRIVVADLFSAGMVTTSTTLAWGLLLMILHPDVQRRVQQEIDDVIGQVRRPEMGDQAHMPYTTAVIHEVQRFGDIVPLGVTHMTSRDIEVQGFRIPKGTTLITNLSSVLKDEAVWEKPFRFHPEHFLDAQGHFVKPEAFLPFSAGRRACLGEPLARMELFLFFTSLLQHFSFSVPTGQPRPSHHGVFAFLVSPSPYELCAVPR
Method: as §2

[10] = biological target: T1, CYP1A2; assay: Reversible CYP inhibition in human liver microsomes (HLM); assay type: in vitro ADME; parameters: from tissue; host or cells: human liver microsomes
Method: (§3) HLM were used to evaluate maribavir's half maximal inhibitory concentration (IC50) on inhibition of activities of nine CYP isoforms. Probe substrates were phenacetin (CYP1A2), coumarin (CYP2A6), bupropion (CYP2B6), paclitaxel (CYP2C8), tolbutamide (CYP2C9), (S)-mephenytoin (CYP2C19), dextromethorphan (CYP2D6), clorzoxazone (CYP2E1), and midazolam and testosterone (CYP3A4).
(§4) CYP activities with 0, 0.1, 0.3, 1, 3, 10, 30, and 100 μM of maribavir were evaluated.

[11] = biological target: T2, CYP2C19; assay: as above; assay type: in vitro ADME; parameters: from tissue; host or cells: human liver microsomes
Method: as §3, §4

[12] = biological target: T3, CYP2C8; assay: as above; assay type: in vitro ADME; parameters: from tissue; host or cells: human liver microsomes; conditions: up to 100 μM
Method: as §3, §4

[13] = biological target: T4, CYP2C9; assay: as above; assay type: in vitro ADME; parameters: from tissue; host or cells: human liver microsomes
Method: as §3, §4

[14] = biological target: T5, CYP2D6; assay: as above; assay type: in vitro ADME; parameters: from tissue; host or cells: human liver microsomes; conditions: up to 100 μM
Method: as §3, §4

## CC(C)Nc1nc2cc(Cl)c(Cl)cc2n1[C@H]1O[C@@H](CO)[C@H](O)[C@@H]1O [maribavir, (2S,3S,4R,5S)-2-(5,6-dichloro-2-(isopropylamino)-1H-benzo[d]imidazol-1-yl)-5-(hydroxymethyl)tetrahydrofuran-3,4-diol]
[1]
  CYP1A2 mRNA induction, % of the levels of positive controls: ≤ 11%
[2]
  CYP2B6 mRNA induction, % of the levels of positive controls: ≤ 11%
[3]
  half-life: 5 to 7 h
[3]; po
  CL renal: 0.85 mL/min
  effect of crushing the tablet or antacids on bioavailability: wasn't affected
  effect of food on exposure: unaffected
  time to peak concentrations: 1 to 3 h
[4]
  Ratio AUC(0-12 h), observed Mean: 0.41
  Ratio C12 h, observed Mean: 0.17
  Ratio Cmax, observed Mean: 0.65
[5]
  time-dependent inhibition (TDI) of CYP1A2: not a time-dependent inhibitor; also recorded: unlikely a TDI
[6]
  time-dependent inhibition (TDI) of CYP2C19: not a time-dependent inhibitor; also recorded: unlikely a TDI
[7]
  time-dependent inhibition (TDI) of CYP2C8: not a time-dependent inhibitor; also recorded: unlikely a TDI
[8]
  time-dependent inhibition (TDI) of CYP2C9: not a time-dependent inhibitor; also recorded: unlikely a TDI
[9]
  time-dependent inhibition (TDI) of CYP2D6: not a time-dependent inhibitor; also recorded: unlikely a TDI
[10]
  IC50: 40 µM
[11]
  IC50: 35 µM
[12]
  reversible inhibition of CYP2C8: not a reversible inhibitor; also recorded: no significant inhibition
[13]
  IC50: 18 µM
[14]
  reversible inhibition of CYP2D6: not a reversible inhibitor; also recorded: no significant inhibition
